Measurements taken from US5234815A, “Monoclonal antibodies against cytosolic thyroid hormone binding protein” (The United States of America as represented by the …, priority 1991, dated 1993).

What was measured:
p58 = biological target: T1, p58 (Homo sapiens, UniProt P14618); test: T3 binding in subcellular fractions of A431 cells; conditions: for Specific [125I]T3 bound: 50 ug protein
T1 construct: endogenous in cells; host or cells: A431 cells
Experimental: Overnight cultures of A431 cells (1×10^7 cells/150 mm dish) were washed with 30 ml of PBS (Ca^++ and Mg^++ free). Cells were harvested with a rubber policeman and pelleted. The cell pellet was resuspended in 2 ml of homogenization buffer (0.25M sucrose, 20 mM Tris, 1.1 mM MgCl2, pH 7.85) and homogenized in a tight dounce homogenizer. After centrifugation at 800 xg for 10 min, the supernatant was further centrifuged at 110,000 xg for 90 min at 4° C. (supernatant A). The pellet was resuspended by pipetting in 1 ml of the homogenizing buffer. The suspension was centrifuged at 110,000 xg for 90 min (supernatant B). The pellet was extracted with 1 ml of 3 mM CHAPS by stirring for 30 min. The suspension was centrifuged at 110,000 xg for 90 min (supernatant C).

purified p58 = biological target: T2, purified p58 (Homo sapiens, UniProt P14618); test: Binding of [125I]T3 and analogs to purified p58; conditions: competition with [125I]T3, equilibrium conditions
T2 construct: p 58 was purified from A431 cells; endogenous in cells; host or cells: A431 cells (purified native protein)
T2 sequence (P14618 whole entry): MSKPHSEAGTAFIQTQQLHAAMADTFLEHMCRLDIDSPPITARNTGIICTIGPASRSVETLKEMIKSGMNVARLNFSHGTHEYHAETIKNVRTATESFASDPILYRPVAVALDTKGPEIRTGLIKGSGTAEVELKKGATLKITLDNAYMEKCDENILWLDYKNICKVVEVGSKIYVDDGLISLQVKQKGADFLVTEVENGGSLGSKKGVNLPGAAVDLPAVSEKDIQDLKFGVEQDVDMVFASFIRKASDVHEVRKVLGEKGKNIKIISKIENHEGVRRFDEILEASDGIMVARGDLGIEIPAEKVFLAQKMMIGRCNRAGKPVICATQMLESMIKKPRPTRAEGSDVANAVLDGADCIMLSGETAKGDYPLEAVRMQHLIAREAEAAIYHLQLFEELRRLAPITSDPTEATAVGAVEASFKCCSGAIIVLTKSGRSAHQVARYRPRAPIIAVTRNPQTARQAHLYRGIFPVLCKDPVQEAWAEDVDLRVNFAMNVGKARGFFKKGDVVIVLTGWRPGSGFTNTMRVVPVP
Experimental: Binding data were analyzed by least squares analysis as described in Horiuchi et al, supra.

T1 sequence (P14618 2-531 limits assumed): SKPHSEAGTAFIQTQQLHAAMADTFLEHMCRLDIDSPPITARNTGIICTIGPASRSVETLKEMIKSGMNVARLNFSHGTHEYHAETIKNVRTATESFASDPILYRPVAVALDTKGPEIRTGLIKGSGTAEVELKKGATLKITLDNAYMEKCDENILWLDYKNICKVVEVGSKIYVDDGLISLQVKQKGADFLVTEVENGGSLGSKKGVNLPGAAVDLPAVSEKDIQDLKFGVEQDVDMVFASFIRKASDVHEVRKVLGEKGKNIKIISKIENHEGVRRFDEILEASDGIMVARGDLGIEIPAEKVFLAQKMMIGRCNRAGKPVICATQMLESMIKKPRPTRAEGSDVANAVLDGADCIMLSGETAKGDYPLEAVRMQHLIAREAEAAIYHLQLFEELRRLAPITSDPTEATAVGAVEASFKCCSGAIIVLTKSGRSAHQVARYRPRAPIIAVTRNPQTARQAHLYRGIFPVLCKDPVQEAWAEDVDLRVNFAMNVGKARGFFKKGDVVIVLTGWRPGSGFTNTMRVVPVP

N[C@@H](Cc1cc(I)c(Oc2ccc(O)c(I)c2)c(I)c1)C(=O)O [[^125 I]T3]
Specific [125I]T3 bound, % of total (p58; 110,000 xg Pellet): 6 % of total | Specific [125I]T3 bound (p58; 110,000 xg Pellet): 0.17 dpm(× 10^-4) | Specific [125I]T3 bound, % of total (p58; 110,000 xg Supernatant): 94 % of total | Specific [125I]T3 bound (p58; 110,000 xg Supernatant): 2.5 dpm(× 10^-4)

N[C@@H](Cc1ccc(Oc2cc(I)c(O)c(I)c2)c(I)c1)C(=O)O [reverse-T3]
affinity for p58, fold less than that of T3 (purified p58): 10 fold

N[C@@H](Cc1cc(I)c(Oc2cc(I)c(O)c(I)c2)c(I)c1)C(=O)O [T4]
affinity for p58 compared with T3 (purified p58): affinity similar to that of T3
